# From US20210095293A1, “METHODS OF TREATING CANCERS WITH GPR132 INHIBITORS” (The Board of Regents of the University of Texas System, priority 2016, published 2021)
# Columns and labels:
# AKT/mTOR signaling = assay: PathScan Akt Signaling Antibody Array in macrophages; assay type: cell-based, mouse; conditions: lactate 5 mM for 15 min
# Procedure: FIG. 20. Lactate activates macrophage AKT/mTOR signaling via Gpr132. WT and Gpr132-KO bone marrow-derived macrophages were serum starved for 24 hrs. After treatment with lactate (5 mM) for 15 min, cell lysate was harvested for detecting the activation status of AKT signaling pathway using a PathScan Akt Signaling Antibody Array Kit. WT, wild-type; Gpr132-KO, Gpr132 knockout.
# To identify the signaling pathways that may mediate the function of lactate-Gpr132 axis in M2 macrophage activation, PathScan Akt Signaling Antibody Array was used to screen potential targets due to the importance of the Akt pathway in macrophage polarization. […] These findings reveal that lactate activation of Gpr132 facilitates macrophage M2 activation by augmenting AKT/mTOR signaling.
# Samples of 20 μg protein were applied to SDS polyacrylamide gels. After protein transfer, membranes were incubated with antibodies for Arg-1 (rabbit polyclonal, Santa Cruz Biotechnology), CD206, Gpr132, or β-actin (mouse monoclonal, Sigma) (1:1000) overnight at 4° C. […] Densitometric quantification was performed by Image-Pro Plus 6.0 software (Media Cybernetics). PathScan Akt Signaling Antibody Array (Cell Signaling) was incubated with macrophage proteins and analyzed following kit instructions.
# [1] = system: breast cancer cells (4T1.2, EO771); assay: Boyden chamber assay, cancer cell migration; assay type: cell-based, mouse
# Procedure: FIGS. 11A-11C. Lactate-activated macrophage promotes cancer cell adhesion, migration and invasion via Gpr132. (FIG. 11A) Adherence assays. 4T1.2 cells were suspended in fibronectin ([…]) pre-coated plates with CM from spleen-derived macrophages (mf) that were treated with 4T1.2 CM or lactate (5 mM) with or without Gpr132 antibody (6 mg/ml) or normal IgG (6 mg/ml) for 10 min. The adhered cells were stained with crystal violet, dissolved in 1% Triton X-100 and measured by OD590. (FIGS. 11B-11C) Boyden chamber assay of cancer cell migration and invasion. 4T1.2 cells (B) or EO771 cells (FIG. 11C) were plated on the upper chamber inserts, with untreated (Control), 4T1.2 CM-activated or lactate-activated spleen-derived WT or Gpr132-KO macrophages plated in the lower chambers. For invasion assay, the inserts were pre-coated with 60 μl matrigel. After migration for 6 hrs (FIG. 11B) or invasion for 24 hrs (FIG. 11C), the migrated or invaded cells were stained with crystal violet and counted as cells per field of view under microscope (n=3-4); For (FIG. 11C), the first bar of each data set of the bar graphs represents the control mf, and the second bar represents Gpr132KO; *p<0.05; **p<0.01; ***p<0.005; ****p<0.001. Scale bar, 500 μm.
# FIGS. 23A-23B. Cancer cell-derived lactate activates macrophages to promote cancer cell migration and invasion via Gpr132. (FIGS. 23A-23B) Boyden chamber assay. EO771 or 4T1.2 cells were cultured in the presence or absence of oxamic acid (90 mM) for 3 days. CM was harvested after the cells were cultured for another 24 hrs without oxamic acid. As a rescue, CM of oxamic acid-treated EO771 or 4T1.2 cells was supplemented with exogenous lactate. […] After migration for 6 hrs (FIG. 23A) or invasion for 24 hrs (FIG. 23B), the migrated or invaded cells were stained with crystal violet and counted as cells per field of view under microscope (n=3-4); for (FIG. 23A), the bars in each data set of the bar graph represent, from left to right, control, EO771, Oxamic acid, and Oxamic acid+Lactate; for (FIG. 23B), the bars in each data set of the bar graph represent, from left to right, control, 4T1.2CM, Oxamic acid, and Oxamic acid+Lactate; *p<0.05; ****p<0.001. […]
# Migration or invasion of breast cancer cells was examined using 24-well Boyden chambers (Corning, Corning, N.Y.) with transwell inserts of […] pore size, coated without (for migration) or with matrigel (for invasion) as previously reported. […] The migrated or invaded cells were fixed with methanol and stained with crystal violet (0.05%, sigma), and then counted as cells per field of view under microscope or measured as OD570 after crystal violet was dissolved.
compound,measurement,setting,value
CC(O)C(=O)O (centres unmarked) [lactate],increase of AKT/mTOR pathway phosphorylation in Gpr132-KO macrophages,AKT/mTOR signaling; Gpr132-KO BMDMs,not
same,"phosphorylation of AKT (Thr308), mTOR (Ser2481), S6 Ribosomal protein (Ser235/236) and RSK-1 (Thr421/Ser424) in WT macrophages",AKT/mTOR signaling; serum starved WT BMDMs,increased
same,number of migrated cancer cells with activated WT macrophages,"[1]; 4T1.2 cells, 6 hrs, vs untreated WT macrophages",significantly enhanced
same,effects on cancer cell migration with Gpr132-KO macrophages,[1]; Gpr132 deletion in macrophages,attenuated
same,rescue of migration by addition to oxamic acid-pretreated cancer cell CM,"[1]; exogenous lactate, WT macrophages",restored
